Results as given in PubChem BioAssay AID248 (DTP/NCI, 2004).
Several values for one entry are separate records, joined by “and”; a condition that tells them apart may be missing. Equal values may be shown once. Toxic doses and inconclusive results are not listed. Cut-off read from the data, not from the text of the source: active = T/C of 150% or more; inactive = T/C below 125%.

Test system: L1210 leukemia ip in BDF1 mice, survival T/C
Assay: NCI In Vivo Anticancer Drug Screen. Data for tumor model L1210 Leukemia (intraperitoneal) in B6D2F1 (BDF1) mice
Details: endpoint: mean survival time, higher = longer survival
Summary of the method: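 Read-out is survival time, reported as the treated-group measurement over the vehicle-control measurement.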

[1] = dose: 100.0 mg/kg/injection, schedule: Q01DX009 (ip), vehicle: Klucel (hydroxypropylcellulose) (HPC)
[2] = dose: 200.0 mg/kg/injection, schedule: Q01DX009 (ip), vehicle: Klucel (hydroxypropylcellulose) (HPC)
[3] = dose: 100.0 mg/kg/injection, schedule: Q01DX001 (ip), vehicle: saline
[4] = dose: 12.5 mg/kg/injection, schedule: Q04DX002 (ip), vehicle: Klucel (hydroxypropylcellulose) (HPC)
[5] = dose: 100.0 mg/kg/injection, schedule: Q04DX003 (ip), vehicle: saline
[6] = dose: 100.0 mg/kg/injection, schedule: Q04DX003 (ip), vehicle: saline with Tween-80
[7] = dose: 200.0 mg/kg/injection, schedule: Q04DX003 (ip), vehicle: saline with Tween-80
[8] = dose: 100.0 mg/kg/injection, schedule: Q01DX001 (ip), vehicle: carboxymethylcellulose (CMC)
[9] = dose: 200.0 mg/kg/injection, schedule: Q01DX001 (ip), vehicle: carboxymethylcellulose (CMC)
[10] = dose: 100.0 mg/kg/injection, schedule: Q01DX001 (ip), vehicle: saline with Tween-80
[11] = dose: 200.0 mg/kg/injection, schedule: Q01DX001 (ip), vehicle: saline with Tween-80

Measured: T/C

Cc1cc(C(=O)O)c(C)o1
inactive: [1] 96 % of control | [2] 93 % of control

C=C(C)C(=O)N(C)C
inactive: dose: 100.0 mg/kg/injection, schedule: Q01DX009 (ip), vehicle: saline 105 % of control | dose: 200.0 mg/kg/injection, schedule: Q01DX009 (ip), vehicle: saline 113 % of control | dose: 400.0 mg/kg/injection, schedule: Q01DX009 (ip), vehicle: saline 103 % of control

Nc1ncc(CO)c(N)n1
inactive: dose: 25.0 mg/kg/injection, schedule: Q01DX001 (ip), vehicle: Klucel (hydroxypropylcellulose) (HPC) 100 % of control | dose: 50.0 mg/kg/injection, schedule: Q01DX001 (ip), vehicle: Klucel (hydroxypropylcellulose) (HPC) 98 % of control | dose: 100.0 mg/kg/injection, schedule: Q01DX001 (ip), vehicle: Klucel (hydroxypropylcellulose) (HPC) 98 % of control and 100 % of control

CC1(C)OC(=O)CC1c1ccccc1 (stereo not given)
inactive: dose: 5.0 mg/kg/injection, schedule: Q01DX001 (ip), vehicle: saline 108 % of control | dose: 10.0 mg/kg/injection, schedule: Q01DX001 (ip), vehicle: saline 101 % of control | dose: 20.0 mg/kg/injection, schedule: Q01DX001 (ip), vehicle: saline 86 % of control | dose: 40.0 mg/kg/injection, schedule: Q01DX001 (ip), vehicle: saline 97 % of control | dose: 80.0 mg/kg/injection, schedule: Q01DX001 (ip), vehicle: saline 101 % of control | [3] 102 % of control | dose: 400.0 mg/kg/injection, schedule: Q01DX001 (ip), vehicle: saline 95 % of control

O=[N+]([O-])c1cccc2nonc12
inactive: dose: 3.12 mg/kg/injection, schedule: Q04DX002 (ip), vehicle: Klucel (hydroxypropylcellulose) (HPC) 93 % of control | dose: 6.25 mg/kg/injection, schedule: Q04DX002 (ip), vehicle: Klucel (hydroxypropylcellulose) (HPC) 109 % of control | [4] 102 % of control

N#C[SH2+].N#C[SH2+].N#C[SH2+].N#C[SH2+].[Cu+2].c1ccc(C[P+](c2ccccc2)(c2ccccc2)c2ccccc2)cc1
inactive: dose: 6.0 mg/kg/injection, schedule: Q01DX009 (ip), vehicle: saline 100 % of control

Nc1nc(Nc2ccc(C3=NCCN3)cc2)nc(Nc2ccc(C3=NCCN3)cc2)n1
inactive: dose: 1.2 mg/kg/injection, schedule: Q01DX Z (ip), vehicle: methylcellulose (MC) 112 % of control | dose: 1.9 mg/kg/injection, schedule: Q01DX Z (ip), vehicle: methylcellulose (MC) 123 % of control | dose: 3.75 mg/kg/injection, schedule: Q01DX Z (ip), vehicle: methylcellulose (MC) 117 % of control | dose: 15.0 mg/kg/injection, schedule: Q01DX Z (ip), vehicle: methylcellulose (MC) 120 % of control | dose: 16.5 mg/kg/injection, schedule: Q01DX009 (ip), vehicle: saline 108 % of control | dose: 25.0 mg/kg/injection, schedule: Q01DX009 (ip), vehicle: saline 120 % of control and 122 % of control | dose: 25.0 mg/kg/injection, schedule: Q04DX003 (ip), vehicle: saline 112 % of control | dose: 37.5 mg/kg/injection, schedule: Q01DX009 (ip), vehicle: saline 114 % of control and 115 % of control | dose: 50.0 mg/kg/injection, schedule: Q01DX009 (ip), vehicle: saline 123 % of control | dose: 50.0 mg/kg/injection, schedule: Q04DX003 (ip), vehicle: saline 109 % of control | dose: 60.0 mg/kg/injection, schedule: Q01DX Z (oral), vehicle: carboxymethylcellulose (CMC) 100 % of control | [3] 117 % of control | [5] 91 % of control | dose: 120.0 mg/kg/injection, schedule: Q01DX Z (oral), vehicle: carboxymethylcellulose (CMC) 95 % of control

CCOC(=O)C(Cc1ccc(Cl)c(Cl)c1)(NC(C)=O)C(=O)OCC
inactive: dose: 50.0 mg/kg/injection, schedule: Q04DX003 (ip), vehicle: saline with Tween-80 102 % of control | [6] 94 % of control | [7] 96 % of control

COc1c2c(c3c(c1OC)c(=O)c1ccccc1n3C)OCO2
inactive: dose: 50.0 mg/kg/injection, schedule: Q01DX001 (ip), vehicle: carboxymethylcellulose (CMC) 96 % of control | [8] 93 % of control | [9] 107 % of control | dose: 300.0 mg/kg/injection, schedule: Q01DX001 (ip), vehicle: carboxymethylcellulose (CMC) 102 % of control

[N-]=[N+]=CC(=O)NCC(=O)NN=C(CO)CO
inactive: dose: 180.0 mg/kg/injection, schedule: Q01DX009 (ip), vehicle: water 118 % of control | dose: 265.0 mg/kg/injection, schedule: Q01DX009 (ip), vehicle: water 122 % of control

COC(=O)N1C=Cc2ccccc2C1C#N (stereo not given)
inactive: [5] 107 % of control

O=[N+]([O-])/C=C/c1c(O)c(Cl)cc(Cl)c1Cl
inactive: [4] 92 % of control | dose: 25.0 mg/kg/injection, schedule: Q04DX002 (ip), vehicle: Klucel (hydroxypropylcellulose) (HPC) 92 % of control | dose: 50.0 mg/kg/injection, schedule: Q04DX002 (ip), vehicle: Klucel (hydroxypropylcellulose) (HPC) 95 % of control

Nc1nc2ccccc2c(Cl)c1Cl
inactive: dose: 50.0 mg/kg/injection, schedule: Q01DX009 (ip), vehicle: Klucel (hydroxypropylcellulose) (HPC) 86 % of control | [1] 91 % of control | [2] 91 % of control

O=C1c2cc(N=C(NO)C(F)(F)F)ccc2-c2ccc([N+](=O)[O-])cc21
inactive: [8] 90 % of control | [9] 90 % of control | dose: 400.0 mg/kg/injection, schedule: Q01DX001 (ip), vehicle: carboxymethylcellulose (CMC) 100 % of control

COC(=O)c1oc2cc(Cl)cnc2c1C(=O)OC
inactive: dose: 100.0 mg/kg/injection, schedule: Q04DX002 (ip), vehicle: saline with Tween-80 97 % of control | dose: 200.0 mg/kg/injection, schedule: Q04DX002 (ip), vehicle: saline with Tween-80 97 % of control | dose: 400.0 mg/kg/injection, schedule: Q04DX002 (ip), vehicle: saline with Tween-80 94 % of control

CCCCCOC(=O)C(O)C(C)(Cl)c1ccccc1 (stereo not given)
inactive: dose: 100.0 mg/kg/injection, schedule: Q04DX002 (ip), vehicle: Klucel (hydroxypropylcellulose) (HPC) 100 % of control | dose: 200.0 mg/kg/injection, schedule: Q04DX002 (ip), vehicle: Klucel (hydroxypropylcellulose) (HPC) 111 % of control | dose: 400.0 mg/kg/injection, schedule: Q04DX002 (ip), vehicle: Klucel (hydroxypropylcellulose) (HPC) 100 % of control

COc1cc2c(cc1OC)CC(=O)NC2
inactive: [5] 95 % of control | dose: 200.0 mg/kg/injection, schedule: Q04DX003 (ip), vehicle: saline 97 % of control | dose: 400.0 mg/kg/injection, schedule: Q04DX003 (ip), vehicle: saline 97 % of control

C=CCOc1ncnc2nc[nH]c12
inactive: [6] 102 % of control | [7] 96 % of control | dose: 400.0 mg/kg/injection, schedule: Q04DX003 (ip), vehicle: saline with Tween-80 101 % of control

O=C(CC=C(c1ccccc1)c1ccccc1)Nc1ccccc1
inactive: [10] 90 % of control | [11] 87 % of control

CCO/C=C1\SC(=S)N(c2cccc(OC)c2)C1=O
inactive: dose: 117.0 mg/kg/injection, schedule: Q01DX009 (ip), vehicle: saline with Tween-80 116 % of control | dose: 176.0 mg/kg/injection, schedule: Q01DX009 (ip), vehicle: saline with Tween-80 108 % of control | dose: 264.0 mg/kg/injection, schedule: Q01DX009 (ip), vehicle: saline with Tween-80 121 % of control | dose: 400.0 mg/kg/injection, schedule: Q01DX009 (ip), vehicle: saline with Tween-80 117 % of control

O=c1cc[nH]c2c([N+](=O)[O-])cccc12
inactive: [3] 99 % of control | dose: 200.0 mg/kg/injection, schedule: Q01DX001 (ip), vehicle: saline 96 % of control

CC1CC(=O)C=C(c2ccccc2)O1 (stereo not given)
inactive: dose: 75.0 mg/kg/injection, schedule: Q01DX009 (ip), vehicle: Klucel (hydroxypropylcellulose) (HPC) 101 % of control | dose: 150.0 mg/kg/injection, schedule: Q01DX009 (ip), vehicle: Klucel (hydroxypropylcellulose) (HPC) 101 % of control

OCc1cscc1-c1cscc1CO
inactive: [10] 97 % of control | [11] 111 % of control | dose: 400.0 mg/kg/injection, schedule: Q01DX001 (ip), vehicle: saline with Tween-80 93 % of control

CC1(CCCc2ccc([N+](=O)[O-])cc2)N=C(N)N=C(N)N1c1ccccc1 (stereo not given)
inactive: dose: 25.0 mg/kg/injection, schedule: Q04DX003 (ip), vehicle: Klucel (hydroxypropylcellulose) (HPC) 103 % of control | dose: 50.0 mg/kg/injection, schedule: Q04DX003 (ip), vehicle: Klucel (hydroxypropylcellulose) (HPC) 100 % of control | dose: 100.0 mg/kg/injection, schedule: Q04DX003 (ip), vehicle: Klucel (hydroxypropylcellulose) (HPC) 121 % of control
